Columns and labels:
Format in all cases: binding
HLA-A*0101 = HLA-A*0101 (Homo sapiens, UniProt P04439, A114D/A174V/A182V/D101N/D185E/E176A/E190D/L180R/Q94H/R68K/S129P/T187R/V100A/V91M/W191G)
HLA-B*3501 = HLA-B*3501 (Homo sapiens, UniProt P01889, A329T/A93T/A95T/C349S/D201E/D98Y/E176V/E187L/E204Q/E69T/I218V/K202T/L119I/Q94N/R155S/R180L/S121R/S35A/S48A/T118I/V127L/V306I/V36M/Y140S/Y91F)
HLA-A*0201 = HLA-A*0201 (Homo sapiens, UniProt P04439, D140Y/D185E/D98H/E176V/E277Q/G131W/G231S/I119V/I121R/I166T/I218V/L300P/L318F/N151K/N90K/P208A/P217A/Q86G/Q94H/R138H/R169H/T345S)
HLA-A*0301 = HLA-A*0301 (Homo sapiens, UniProt P04439)
HLA-B*0801 = HLA-B*0801 (Homo sapiens, UniProt P01889, A93T/A95T/D138N/E176V/E187T/K202T/Q94N/R180D/S35A/V36M/Y33D/Y91F)
HLA-B*0702 = HLA-B*0702 (Homo sapiens, UniProt P01889)

Sequence | ELISA (Absorption-Pass/Fail Control) (HLA-A*0201) | ELISA (Absorption-Pass/Fail Control) (HLA-B*0801) | also measured
FINVPEWSY [SEQ ID NO: 10] |  |  | ELISA (Absorption-Pass/Fail Control) (HLA-A*0101): 0.16; ELISA (Absorption-Pass/Fail Control) (HLA-B*3501): 0.57
KLCDLDGVK [SEQ ID NO: 22] | 0.20 |  | ELISA (Absorption-Pass/Fail Control) (HLA-A*0301): 1.16
LGNPMCDEF [SEQ ID NO: 43] |  |  | ELISA (Absorption-Pass/Fail Control) (HLA-B*3501): 0.35
SLVKSDQIC [SEQ ID NO: 16] | 0.09 |  | ELISA (Absorption-Pass/Fail Control) (HLA-B*3501): −0.03
IMEKNVTVT [SEQ ID NO: 19] | 0.02 |  | 
VTHAQDILE [SEQ ID NO: 33] |  | 0.31 | 
YSEHPFTSQY (T cell epitope) [SEQ ID NO: 2, reference compound] |  |  | ELISA (Absorption-Pass/Fail Control) (HLA-A*0101): 0.58; efficiency of binding to HLA-A*0101 (in words) (HLA-A*0101): high efficiency
YIVEKANPV [SEQ ID NO: 26] | 1.02 | 0.32 | ELISA (Absorption-Pass/Fail Control) (HLA-B*0702): 0.11
ILRGSVAHK (T cell epitope) [SEQ ID NO: 5, reference compound] |  |  | ELISA (Absorption-Pass/Fail Control) (HLA-A*0301): 1.19; efficiency of binding to HLA-A*0301 (in words) (HLA-A*0301): high efficiency
WLLGNPMCD [SEQ ID NO: 38] |  | 0.03 | 
LFAIVSLVK [SEQ ID NO: 40] |  |  | ELISA (Absorption-Pass/Fail Control) (HLA-B*3501): 0.10
VSLVKSDQI [SEQ ID NO: 31] |  | 0.36 | 
FAIVSLVKS [SEQ ID NO: 13] | 0.07 |  | 
VLLFAIVSL [SEQ ID NO: 11] | 0.47 |  | 
LVKSDQICI [SEQ ID NO: 29] |  |  | ELISA (Absorption-Pass/Fail Control) (HLA-B*0702): −0.06; ELISA (Absorption-Pass/Fail Control) (HLA-B*3501): 0.04
GNPMCDEFI [SEQ ID NO: 39] |  | 0.04 | 
LILRDCSVA [SEQ ID NO: 23] | 0.57 | 0.07 | 
MEKNVTVTH [SEQ ID NO: 20] | −0.02 |  | 
AIVSLVKSD [SEQ ID NO: 14] | 0.43 |  | 
KSDQICIGY [SEQ ID NO: 9] |  |  | ELISA (Absorption-Pass/Fail Control) (HLA-A*0101): 0.47; ELISA (Absorption-Pass/Fail Control) (HLA-A*0301): 0.05

Sequence | ELISA (Absorption-Pass/Fail Control) (HLA-A*0201) | ELISA (Absorption-Pass/Fail Control) (HLA-B*0801) | also measured
ILEKKHNGK [SEQ ID NO: 28] |  | 0.95 | ELISA (Absorption-Pass/Fail Control) (HLA-A*0301): −0.01
KPLILRDCS [SEQ ID NO: 35] |  | 0.10 | 
TPRVTGGGAM (T cell epitope) [SEQ ID NO: 6, reference compound] |  |  | ELISA (Absorption-Pass/Fail Control) (HLA-B*0702): 0.88; efficiency of binding to HLA-B*0702 (in words) (HLA-B*0702): high efficiency
PLILRDCSV [SEQ ID NO: 36] |  | 0.65 | 
AQDILEKKH [SEQ ID NO: 21] | 0.15 |  | 
VAGWLLGNP [SEQ ID NO: 37] |  | 0.04 | 
KKHNGKLCD [SEQ ID NO: 41] |  |  | ELISA (Absorption-Pass/Fail Control) (HLA-B*3501): −0.05
NVTVTHAQD [SEQ ID NO: 27] |  | 0.08 | ELISA (Absorption-Pass/Fail Control) (HLA-A*0301): −0.04
ILRDCSVAG [SEQ ID NO: 30] |  |  | ELISA (Absorption-Pass/Fail Control) (HLA-B*0702): 0.03
IVSLVKSDQ [SEQ ID NO: 15] | 0.04 |  | 
TIMEKNVTV [SEQ ID NO: 18] | 0.99 | 0.80 | ELISA (Absorption-Pass/Fail Control) (HLA-B*0702): 0.00
DTIMEKNVT [SEQ ID NO: 32] |  | 0.08 | 
AGWLLGNPM [SEQ ID NO: 42] |  |  | ELISA (Absorption-Pass/Fail Control) (HLA-B*3501): −0.06
NVPEWSYIV [SEQ ID NO: 25] | 1.03 |  | 
HPVGEADYFEY (T cell epitope) [SEQ ID NO: 8, reference compound] |  |  | ELISA (Absorption-Pass/Fail Control) (HLA-B*3501): 0.55; efficiency of binding to HLA-B*3501 (in words) (HLA-B*3501): high efficiency
HANNSTEQV [SEQ ID NO: 17] | 0.43 |  | ELISA (Absorption-Pass/Fail Control) (HLA-B*3501): 0.43
LLFAIVSLV [SEQ ID NO: 12] | 1.06 |  | 
PMCDEFINV [SEQ ID NO: 24] | 0.98 |  | 
DILEKKHNG [SEQ ID NO: 34] |  | 0.53 | 

— patent US20070197446A1, “MHC binding peptides and their uses” (ProImmune Limited, priority 2006, published 2007)
